Experimental data reported in patent US20250186597A1, “TARGETED IMMUNE ACTIVATION WITH IL-18 IMMUNOCYTOKINES” (BRIGHT PEAK THERAPEUTICS AG, priority 2023, published 2025).

Legend:
Type in all cases: cell-based, human
[1] = system: PD-1positive transduced NK-92 cells; assay: IFN gamma secretion assay in PD-1 positive transduced NK-92 cells (Example 17)
Protocol: (§1) To show selectivity of the anti-PD1-IL18 immunocytokine (IC) for PD-1 positive cells, the NK-92 cell line was used to generate a PD-1 expressing cell line and furthermore, to measure IFN[…] release upon incubation with IL-18 variants and ICs.
(§2) On the day of experiment, parental PD-1negative and PD-1positive transduced cells were harvested and washed with PBS 1× and resuspended in medium (w/o IL-2) containing 1 ng/ml of recombinant human Interleukin-12 (SinoBiologicals, Cat #CT011-H08H). After counting, cells were seeded at 100 000 cells/well in a 384 well culture plate and incubated at 37° C./5% CO2. When indicated, cells were preincubated with anti-PD-1 antibody LZM-009 at 17 uM during 30 min at 37° C. […] The lowest concentration assessed was 0.8 fM.
(§3) After 16-20 h incubation at 37° C./5% CO2, 5 μl of supernatant were carefully transferred to a 384 microwell OptiPlate (Perkin Elmer; Cat #6007270) and Interferon-gamma (IFNγ) levels were measured using the Human IFNγ AlphaLISA Assay Kit (Perkin Elmer, Cat #AL217C). […] AlphaLISA signal was then measured on an Enspire plate reader (Perkin Elmer) using 680 and 615 nm as excitation and emission wavelengths respectively. Half maximal effective concentration (EC50) was calculated based on a variable slope, four parameter analysis using GraphPad PRISM software.

[2] = system: PD-1 positive (transduced) KG-1 cells; assay: IFN gamma secretion assay in PD-1 transduced KG-1 cells (Example 11)
Protocol: The KG-1 cell line was used to generate a PD-1 expressing cell line and furthermore, to measure IFNγ release upon incubation with IL-18 variants and corresponding IL-18 immunocytokines.
PD-1 expressing cell line generation: Briefly, KG-1 cells were transduced using lentiviral particles carrying the human PD-1 gene (PDCD1 NM_005018; Origene, CAT #: RC210364L3V) at a MOI (Multiplicity of Infection) of 30. Spinfection was performed at 1260 g during 90 min at 37° C. in the presence of 5 μg/ml of Polybrene and 10 mM of HEPES in complete culture media (RPMI, 10% FBS, 1% L-Glutamine). Five days after transduction, puromycin at a final concentration of 1 ug/ml was added to select for PD-1 positive cells. For culture maintenance, puromycin concentration was decreased to 0.5 μg/ml. Stable and homogenous expression of PD-1 was verified by surface staining (BD Pharmingen, #557860).
IFNγ release was assessed in PD-1 positive (transduced) KG-1 cells, as well as in the parental PD-1 negative cells. 0.5×10^5 cells were seeded into a 96-well U-bottom plate in culture media (RPMI, 10% FBS, 1% L-Glutamine) and stimulated with IL-18 variants/ICs for 20-24 h. The test items were diluted to 100 nM in culture medium, followed by 7 10-fold serial dilutions. The lowest concentration assessed was […]. After incubation, IFNγ release was measured using the LEGENDplex custom human mix and match KIT (Biolegend LEGENDplex™ Human IFN-γ Capture Bead B5, 13X #740942, LEGENDplex™ HU Essential Immune Response Panel Detection Abs, #740931, LEGENDplex™ Buffer Set A #740368). To this end, cell culture supernatant was collected and diluted 1:1 with Assay Buffer. Fluorescence measurements were done with a Quanteon Flow Cytometer from Acea Biosciences. For analysis, MFI values (median fluorescence intensity) were exported and plotted against concentrations used. The EC50 values (half maximal effective concentration) were calculated based on a variable slope and four parameter analysis using GraphPad PRISM software version 9.

[3] = system: parental PD-1negative NK-92 cells; assay: IFN gamma secretion assay in parental PD-1 negative NK-92 cells (Example 17); conditions: IFNγ secretion
Protocol: as §1, §2, §3

[4] = system: NK92 cells; assay: IFN gamma secretion assay in NK92 cells (Example 10); conditions: IFNγ secretion, 1 ng/ml IL-12
Protocol: The IFNγ-secretion stimulating activity of the unconjugated IL-18 variants and corresponding IL-18 immunocytokines was evaluated on NK92 cell line. The NK cell line NK-92 derived from a patient with lymphoma (ATCC, Cat #CRL-2407) was cultured in aMEM medium supplemented with 12.5% FCS, 12.5% horse serum (HS), 50 uM B-mercaptoEthanol, and 2 ng/ml of recombinant Human Interleukin-2 (IL-2).
On the day of experiment, cells were harvested and washed with aMEM medium without IL-2 and resuspended in medium (w/o IL-2) containing 1 ng/ml of recombinant human Interleukin-12 (SinoBiologicals, Cat #CT011-H08H). After counting, cells were seeded at 100 000 cells/well in a 384 well titer plate and incubated at 37° C./5% CO2. Sixteen 4-fold serial dilutions of IL-18 analytes were prepared in aMEM medium—1 ng/ml IL-12 and were added to the NK-92 cells. […]
After 16-20 h incubation at 37° C./5% CO2, 5 μl of supernatant were carefully transferred to a 384 microwells OPTIPlate (Perkin Elmer; Cat #6007270) and Interferon-gamma (IFNγ) levels measured using the Human IFNγ AlphaLISA Assay Kit (Perkin Elmer, Cat #AL217C). […] AlphaLisa signal was then measured on an Enspire plate reader (Perkin Elmer) using 680 and 615 nm as excitation and emission wavelengths respectively. Half maximal effective concentration (EC50) was calculated based on a variable slope, four parameter analysis using GraphPad PRISM software.

EC50 ([1]; IFNγ secretion): 130 pM
PD-1^neg/PD-1^pos EC50 ratio ([1]; NK-92 cells): 1.4
EC50 ([2]; IFNγ secretion, PD-1 transduced KG-1): 297 pM
PD-1^neg/PD-1^pos EC50 ratio ([2]; KG-1 cells): 1.298
EC50 [4]: 374 pM
Substance: SEQ ID NO: 1: Native sequence of human IL-18 (bioactive form) [reference compound]
EC50 [3]: 158 pM
